Measured values: patent US20110065715A1, “Nogo Receptor Binding Small Molecules to Promote Axonal Growth” (Yale University, priority 2007, published 2011)
“Also recorded” adds a separate entry of the source. Like-named read-outs stand apart in the source and are kept apart here.

What was measured:
[1] = system: postnatal day 15 (P15) NgR1 knockout mouse DRG neurons; experiment: Neurite outgrowth, P15 NgR1 knockout mouse DRG neurons; type: cell-based; conditions: 24 hours
Method: (§1) However, the inhibition of neurite outgrowth by the compound S is believed to be independent of its interaction with the Nogo receptor-Nogo ligand complex. Dorsal root ganglia (DRG) were removed from wild type or NgR1 knockout mouse pups at postnatal day 15, dissociated by trituration after 30 min incubation in 0.5% collagenase, plated on laminin-coated 96-well tissue culture plates in DMEM with 10% fetal bovine serum and B27. After 24 hours, cells were fixed in 4% formaldehyde in phosphate buffered saline (PBS), washed in PBS, and blocked for 1 hour in PBS with 0.1% triton X-100 and 10% goat serum. The cells were then incubated in rabbit anti-beta-3-tubulin (1:500) in PBS overnight. After washing 3 times, the cells were incubated in Alexa-fluor 488 goat anti-rabbit IgG (1:500) for 6 hrs, washed with PBS, and imaged at 10× with an ImagExpress automated microscope (Molecular Devices, Inc.). Neurite outgrowth was measured with AcuityExpress software (Molecular Devices, Inc.).

[2] = system: postnatal day 15 (P15) wild type mouse DRG neurons; experiment: Neurite outgrowth, P15 wild type mouse DRG neurons; type: cell-based; conditions: 24 hours
Method: as §1

[3] = system: embryonic day 13 or 14 chick DRG neurons; experiment: Neurite outgrowth assay, E13/E14 chick DRG neurons; type: cell-based, chicken; conditions: 20 μM
Method: To test the ability of the “hit” compounds to promote neurite outgrowth, a neurite outgrowth assay was performed using each of these compounds. Dorsal root ganglia (DRG) were removed from chicken embryos at embryonic day 13 or 14, dissociated by trituration after 30 min incubation in 0.5% collagenase, and plated on laminin-coated 96-well tissue culture plates in DMEM with 10% fetal bovine serum containing 20 μM of the test compound. After two to four hours of incubation, the cells were fixed in 4% formaldehyde in phosphate buffered saline (PBS), washed in PBS, and blocked for 1 hour in PBS with 0.1% triton X-100 and 10% goat serum. The cells were incubated in rabbit anti-beta-3-tubulin (1:500) in PBS overnight and then washed 3 times with PBS. The cells were then incubated in Alexa-fluor 488 goat anti-rabbit IgG (1:500) for 6 hrs, washed with PBS, and imaged at 10× with an ImagExpress automated microscope (Molecular Devices, Inc.). Neurite outgrowth was measured with AcuityExpress software (Molecular Devices, Inc.).

[4] = system: Nogo receptor:Nogo ligand (Nogo 66) interaction; experiment: DELFIA assay of Fc-NgR:Ng66 interaction; type: binding
Method: ELISA and DELFIA assays were then performed to evaluate the ability of the small molecules that were identified as “hits” in the AlphaScreens to inhibit the interaction of NgR and Nogo ligand. In the DELFIA Assay, 96 well streptavidin coated plates were blocked overnight with PBS and 10 mg/ml bovine serum albumin (BSA) (200 μl). The wells were then coated for 1.5 hours with sonicated HBH (Hanks Balanced Salt Solution/0.1 M HEPES/1 mg/ml BSA) containing Nogo 66 (B66) (0.5 μl of 10 mM/10 ml HBH) (50 μl) and then washed 4 times with 200 μl of HBH. The solution containing the inhibitor compound (50 μl in HBH) was added along with 1% FcNgR solution in HBH (50 μl), and the solution was incubated for 2 hours. The wells were washed 5 times with HBH. Alkaline phosphatase (AP) conjugated mouse anti-rat antibody (1:2500) was added and the wells were then washed 5 times with DELFIA wash buffer. The Europium (Eu) anti-mouse antibody was then added in Perlin Elmer Assay, buffer (100 μg/ml) (150 μl) and the wells were again washed 5 times with DELFIA wash buffer. The enhancer solution was added (100 μl) and the plate was read with the Perkin Elmer Victor 5 instrument 15 minutes later. (FIG. 10B) The results from the DELFIA assay indicate that compounds HTS08871, KM08071, and 503749, as well as the positive control, NEP33, inhibit the Nogo receptor:Nogo ligand (Nogo 66) interaction. (FIGS. 10D and 11A-C).

- inhibition of Nogo receptor:Nogo 66 interaction signal, DELFIA [4]: dose dependent signal inhibition
- inhibition of Nogo receptor:Nogo 66 interaction signal, DELFIA ([4]; listed as 503749): inhibit
SMILES: N#Cc1ccc(CN2C(=O)CSC2=S)cc1 [S, 4-[(4-oxo-2-thioxo-1,3-thiazolan-3-yl)methyl]benzonitrile]
- neurite outgrowth, NgR1 knockout mice [1]: inhibits neurite outgrowth; also recorded: inhibitory effect
- neurite outgrowth, wild type mice [2]: inhibits neurite outgrowth; also recorded: inhibitory effect
- neurite outgrowth compared to the DMSO control ([3]; E13 or E14 chick DRG, two to four hours): inhibited neurite outgrowth
- basal neurite outgrowth, E14 chick DRG neurons ([3]; E14): no basal neurite outgrowth
